Measured values as given in EP4509142A1, “FGFR4 AS TARGET IN CANCER TREATMENT” (Ona Therapeutics S.L., priority 2023, dated 2025).
pIC50: −log10 of the molar value. Like-named read-outs stand apart in the source and are kept apart here.

Assays:
Test in all cases: Dose-response to palbociclib, CyQUANT NF cell proliferation after 4 days
Type in all cases: cell-based
T47D = conditions: Homo sapiens; parental sensitive T47D
Experimental: (§1) The inventors next generated experimental cell lines models with acquired resistance to palbociclib derived from commercially available breast cancer cell lines MCF7 and T47D (ATCC), which were cultured according to supplier's recommendation. An MCF7-derived palbociclib-resistant (MCF7-PR) and a T47D-derived palbociclib-resistant (T47D-PR) cell lines were established by treating MCF7 and T47D with palbociclib for 6 months, starting at low concentration (1 nM) and increasing them at each passage until reaching 1 µM). MCF7-PR and T47D-PR cells were maintained in complete medium with 500 nM of palbociclib. The IC50 of sensitive MCF7 and T47D as well as derived palbociclib-resistant MCF7-PR and T47D-PR cell lines was evaluated by seeding 5000 tumor cells per well in 96-well plates and adding the following day increasing doses of Palbociclib. Proliferation was assessed after 4 days with CyQUANT NF Cell Proliferation (ThermoFisher Scientific) according to manufacturer's instructions. Fluorescence measurements were taken using FL800 Fluorescence plate reader with excitation at 485 nm and emission detection at 520 nm. Surviving fraction was calculated relative to untreated control cells using the formula: % Cell viability = (treated/untreated)*100 and IC^50 values were calculated with a non-linear regression model using GraphPad PRISM software.

T47D-PR = conditions: palbociclib-resistant T47D-PR
Experimental: as §1

MCF7 = conditions: Homo sapiens; parental sensitive MCF7
Experimental: as §1

MCF7-PR = system: MCF7-PR
Experimental: as §1
(§2) Next, FGFR4-depletion was induced by means of stable shRNA expression and confirmed by Western blotting using standard procedures. Specifically, sensitive MCF7 and resistant MCFR7-PR and ZR751 were infected with two independent stable FGFR4 shRNAs (shFGFR4#1 and shFGFR4#2) and, as a control, a non-targeting scramble shRNA (shControl) (Fig.2C-2D). Response to palbociclib was evaluated by incubating the cells with increasing concentrations of palbociclib as described above.

ZR751 = conditions: Homo sapiens, ZR-75-1
Experimental: as §1, §2
In order to validate FGFR4 as a driver of CDK4/6i resistance, the inventors developed ZR751 cells that overexpressed wild-type FGFR4 (FGFR4wt) or constitutively active FGFR4 (FGFR4 Y367C) (Roidl et al., 2010). Control cells were infected with the backbone vector expressing red fluorescent protein (RFP).

pIC50 (T47D-PR): 5.74 | pIC50 (MCF7-PR; FGFR4 knockdown shFGFR4#1, read-out: IC50 MCF7-PR shFGFR4#1): 6.24 | pIC50 (MCF7-PR; FGFR4 knockdown shFGFR4#2, read-out: IC50 MCF7-PR shFGFR4#2): 6.35 | pIC50 (MCF7-PR; non-targeting scramble shRNA, read-out: IC50 MCF7-PR shControl): 5.81 | pIC50 (MCF7-PR; palbociclib-resistant MCF7-PR, read-out: IC50 MCF7-PR): 5.70
SMILES: CC(=O)c1c(C)c2cnc(Nc3ccc(N4CCNCC4)cn3)nc2n(C2CCCC2)c1=O [palbociclib]
pIC50 (T47D): 7.30 | pIC50 (MCF7): 6.60 | pIC50 (ZR751; FGFR4 knockdown shFGFR4#1, read-out: IC50 ZR751 shFGFR4#1): 7.10 | pIC50 (ZR751; FGFR4 knockdown shFGFR4#2, read-out: IC50 ZR751 shFGFR4#2): 6.90 | pIC50 (ZR751; control cells with backbone vector expressing RFP, read-out: IC50 ZR751 RFP): 6.45 | pIC50 (ZR751; non-targeting scramble shRNA, read-out: IC50 ZR751 shControl): 5.42 | pIC50 (ZR751; overexpressing wild-type FGFR4, read-out: IC50 ZR751 FGFR4wt): ~2.38
